Source: patent US20100113602A1, “USE OF HISTONE DEACETYLASE INHIBITORS FOR THE TREATMENT OF CENTRAL NERVOUS SYSTEM METASTASES” (The United States of America,as represented by the …, priority 2007, published 2010)

Key:
[1] = test system: acetyl Histone H3, acetyl histone H4, p21; test: Western blot of 231-BR cell lysates after HDI treatment; format: cell-based, human; conditions: 231-BR cells; depsipeptide 10 ng/mL or SAHA 5 μM; 0, 8, 24, 48 hours
Protocol: All cell lines are deemed free of mycoplasma and human pathogens and test negative in mouse antibody production (MAP) tests. […] Drug solution is added once at the beginning and left on the cells for the indicated duration (0, 8, 24, and 48 hours). Controls are performed in the same way with the same amount of vehicle solution for each drug, but without the drug. The vehicle can be DMSO. Cells are lysed according to standard procedures and Western blotting is performed. Primary antibodies specific to the targeted proteins are used including antibodies specific to acetyl Histone H3, acetyl histone H4, p21, and α-tubulin. Horseradish peroxidase-conjugated secondary antibodies purchased from Santa Cruz Biotechnology (Santa Cruz, Calif.) are used at dilutions of 1:5000. Proteins are visualized using enhanced chemilluminescence (Cell Signaling) and autoradiography. […] As histones H3 and H4 become hyperacetylated, protein levels of the cyclin-dependent kinase inhibitor p21 increase. Those changes indicate HDAC inhibition.

[2] = test system: MDA-MB-231BR cells brain metastases; test: Brain metastasis model, timing of SAHA administration (Example 6); format: in vivo, nude mice; conditions: for Large Metastases, Mean number per section: vehicle 7.65; for Micrometastases, Mean number per section: vehicle 170
Protocol: As described in Example 5, 175,000 MDA-MB-231BR cells in 0.1 mL PBS are injected into the left cardiac ventricle of the heart of nude mice. […] On day [X], mice are euthanized under CO2 anesthesia and brains are excised for imaging as described in Example 5.
Micro- and large (>50 microns^2) metastases are tabulated. The data set forth in Table 8 are representative of two experiments.

[3] = mouse, in vivo
Protocol: All animal experiments are conducted under an approved Animal Use Agreement with the NCI. Under isoflurane anesthesia, 20 female Balb/c nude mice (Charles River Laboratories, Frederick, Md.) 5-7 weeks old are inoculated with 500,000 (Experiment 1) or 100,000 (Experiment 2) MDA-MB-231-BR cells in 0.1 mL PBS in the left ventricle of the heart. Mice are monitored daily for signs of ill health. Three days after tumor cell inoculation mice are randomized to treatment groups and treatment is started. […]. After 21 days of treatment, mice are euthanized under CO2 anesthesia and brains are excised for imaging. EGFP is detected in whole brains by the Maestro 420 In Vivo Spectral Imaging System (Cambridge Research and Instrumentation, Woburn, Mass.), using software (e.g., Nuance Technology, Burlington, Mass.) to distinguish or unmix images of fluorescence from multiple sources. […] Ten serial sections every 300 microns through the brain are analyzed using a 5× objective on a Zeiss microscope, containing an ocular grid with squares of 0.8 mm^2.
. […] “Mean Micromets” in Tables 6 and 7 refer to the mean number of metastases counted in 10 step sections from one hemisphere of the brain. “Mean Large Mets” in Tables 6 and 7 refer to the size of metastases determined by a 16 mm^2 ocular grid. […]

231-BR cells [4] = test: MTT proliferation / colonization assay of 231-BR cells; format: cell-based, human
Protocol: The prepared cells are plated at a density of 15,000 cells/well in a 96 well plate and incubated for 3 hours to permit attachment. Cells are then washed with PBS, and media containing either 0.1% or 1% FBS is added to the cells. […] After a 72-hour incubation, 0.5 mg/mL MTT (Sigma, St. Louis, Mo.) is added and plates are incubated for 2 hours. Media is then aspirated, and MTT dissolved in DMSO for 30 minutes, after which the absorbance is read at a wavelength of 570 nm. […] Data in Table 4 is shown as percent of colonies formed±standard deviation compared to untreated controls. Results are representative of three independent experiments in quintuplicate. Analysis of variance (ANOVA) is used to assess in vitro functions of vehicle treated versus vorinostat treated cells. P values can be two-tailed. Tests can be performed using GraphPad InStat version 3.0 software.

231-BR cells [5] = test: 48-well Boyden chamber chemotaxis (motility) assay; format: cell-based, human; conditions: 24 hours drug treatment, 4 hours migration, SAHA 5 μM, depsipeptide 10 ng/mL, VPA 10 mM, TSA 100 ng/mL, ± standard deviation
Protocol: 231-BR Cells are used as described in Example 2. A 48-well Boyden chemotaxis chamber is used. Polycarbonate PVP-free Nucleopore filters (8 μm pore size) are coated with 0.01% collagen (BD Bioscience). […] Drug concentrations used are as described in Example 2. 231-BR cells, after 24 hours of vorinostat, other drug treatment, or control are added to the top chamber in DMEM with 1 mg/ml BSA at a concentration of 2×10^6 cells/ml. Chambers are incubated for 4 hours in a 37° C. incubator with 5% CO2. After chambers are disassembled, filters are fixed and stained with reagents from a Diff-Quik® Kit (Fischer Scientific). Cells that migrate through the Boyden chamber are counted using a light microscope. Representative areas are counted to determine the number of cells that have migrated for each well. Data in Table 5 are shown as mean number of cells±standard deviation that migrate per well. Analysis of variance (ANOVA) is used to assess in vitro functions of vehicle treated versus vorinostat treated cells. P values can be two-tailed. Tests can be performed using GraphPad InStat version 3.0 software.

[6] = 150 mg/kg SAHA IP once daily starting on day 3 post-injection until day 21
[7] = 150 mg/kg SAHA IP once daily starting on day 7 post-injection until day 21
[8] = 150 mg/kg SAHA IP once daily starting on day 14 post-injection until day 21

SMILES: O=C(CCCCCCC(=O)Nc1ccccc1)NO [SAHA, N-Hydroxy-N′-phenyloctanediamide]
- acetylation of histones H3 and H4 (Western blot) [1]: hyperacetylated
- Large Metastases, Mean number per section [2, 6]: 2.89
- Micrometastases, Mean number per section [2, 6]: 122
- Large Metastases, Mean number per section [2, 7]: 4.94
- Micrometastases, Mean number per section [2, 7]: 151
- Large Metastases, Mean number per section [2, 8]: 5.96
- Micrometastases, Mean number per section [2, 8]: 171
- reduction in large metastases ([2]; 150 mg/kg SAHA starting on day 3 post-injection, vs vehicle, P<0.001): 57%
- reduction in micrometastases ([2]; 150 mg/kg SAHA starting on day 3 post-injection, vs vehicle, P=0.017): 28%
- reduction (large metastases) ([2]; 150 mg/kg SAHA starting on day 7 post-injection, vs vehicle, P=0.008): 34%
- reduction in large metastases ([2]; 150 mg/kg SAHA starting on day 14 post-injection, vs vehicle, not statistically significant): 22%
- toxicity of the higher dosage [3]: toxicity
- Colonization Data, % Control (231-BR cells [4]; 231-BR cells, 72-hour incubation, SAHA 5 μM, depsipeptide 10 ng/mL, VPA 10 mM, TSA 100 ng/mL, ± standard deviation): 47 ± 1.9 % Control
- IC50 (231-BR cells [4]; Homo sapiens, read-out: IC50 (growth inhibition, absorbance at 570 nm)): 12.6 µM
- Motility Data, mean number of cells that migrate per well, 0.5% FCS (231-BR cells [5]; 0.5% FCS chemoattractant): 756 ± 56
- Motility Data, mean number of cells that migrate per well, Control (231-BR cells [5]; Control (no FCS chemoattractant)): 67 ± 6
